Measurements published in patent US11319320B2, “PIM kinase inhibitor compositions, methods, and uses thereof” (Snap Bio, Inc., priority 2017, dated 2022).
Several values for one entry are separate records, joined by “and”; a condition that tells them apart may be missing. Equal entries are not always repeated. Where two headings read alike, the source gives them in different places.

Assays:
PIM3 [1] = target: T1, PIM3 (Homo sapiens, UniProt Q86V86); assay: KINOMEscan competition binding assay (Kd); conditions: run in duplicate
PIM2 [2] = target: T2, PIM2 (Homo sapiens, UniProt Q9P1W9); assay: KINOMEscan competition binding assay (Kd); conditions: run in duplicate
PIM1 [3] = target: T3, PIM1 (Homo sapiens, UniProt P11309); assay: KINOMEscan competition binding assay (Kd)
PIM2 [4] = target: T2, PIM2; assay: Biochemical kinase assay, radiolabeled ATP filter binding (Reaction Biology); conditions: 10 μM ATP, peptide substrate […]
PIM3 [5] = target: T1, PIM3; assay: as above; conditions: 10 μM ATP, peptide substrate RSRHSSYPAGT
PIM1 [6] = target: T3, PIM1; assay: as above; conditions: 10 μM ATP, peptide substrate […]
SNU-16 = assay: Cell Titer-Glo 2.0 luminescent cell viability assay; format: cell-based; conditions: Homo sapiens, 72 hour incubation, cell viability (ATP luminescence)
Experimental: (§1) To obtain growth inhibition data of endodermal cancer cells for PIM kinase inhibitors, Compound 122 was tested against SNU-16, HepG2, MIA PaCa-2, SW480, DU145, HEK-293, PANC-1, and THLE-3 cell lines using CELL TITER-GLO® 2.0 Luminescent Cell Viability Assay (Promega Corporation, Madison, Wis.) at Reaction Biology Corporation (Maven, Pa.). All cell lines were purchased from American Type Culture Collection (ATCC, Manassas, Va.) and maintained in the recommended culture media in the presence of 10% fetal bovind serum, […] of penicillin and 100 µg/mL of streptomycin at 37° C. in a humidified atmosphere of 5% CO2 and 95% air. To initiate the growth inhibition study, Compound 122 was diluted in DMSO solution with 10-dose and 3-fold dilutions in a source plate starting at 50 mM. […] The cells in the cell culture plates were incubated with the compounds at 37° C. for 72 hours in a humidified atmosphere of 5% CO2 and 95% air. After a 72 hour incubation period, 25 μl of Cell Titer Glo 2.0 reagent was added to each well. The contents were mixed on an orbital shaker for 2 minutes and incubated at room temperature for 15 minutes to stabilize the luminescent signal. Luminescence was recorded by Envision 2104 Multilabel Reader (PerkinElmer, Santa Clara, Calif.). The number of viable cells in culture was determined based on quantitation of the ATP present in each culture well. […] Table 5 lists the IC50 values for Compound 122 in the tested cell lines.

HEK-293 = assay: as above; format: cell-based; conditions: Homo sapiens, HEK293; 72 hour incubation, cell viability (ATP luminescence)
Experimental: as §1

SW480 = assay: as above; format: cell-based; conditions: Homo sapiens, 72 hour incubation, cell viability (ATP luminescence)
Experimental: as §1

MIA PaCa-2 = assay: as above; format: cell-based; conditions: Homo sapiens, 72 hour incubation, cell viability (ATP luminescence)
Experimental: as §1

THLE-3 = assay: as above; format: cell-based; conditions: THLE3; 72 hour incubation, cell viability (ATP luminescence)
Experimental: as §1

DU145 = assay: as above; format: cell-based; conditions: Homo sapiens, DU-145; 72 hour incubation, cell viability (ATP luminescence)
Experimental: as §1

HepG2 = assay: as above; format: cell-based; conditions: Homo sapiens, 72 hour incubation, cell viability (ATP luminescence)
Experimental: as §1

PANC-1 = assay: as above; format: cell-based, human; conditions: 72 hour incubation, cell viability (ATP luminescence)
Experimental: To obtain growth inhibition data of endodermal cancer cells for PIM kinase inhibitors, Compound 122 was tested against SNU-16, HepG2, MIA PaCa-2, SW480, DU145, HEK-293, PANC-1, and THLE-3 cell lines using CELL TITER-GLO® 2.0 Luminescent Cell Viability Assay (Promega Corporation, Madison, Wis.) at Reaction Biology Corporation (Maven, Pa.). All cell lines were purchased from American Type Culture Collection (ATCC, Manassas, Va.) and maintained in the recommended culture media in the presence of 10% fetal bovind serum, […] of penicillin and 100 µg/mL of streptomycin at 37° C. in a humidified atmosphere of 5% CO2 and 95% air. To initiate the growth inhibition study, Compound 122 was diluted in DMSO solution with 10-dose and 3-fold dilutions in a source plate starting at 50 mM. […] The cells in the cell culture plates were incubated with the compounds at 37° C. for 72 hours in a humidified atmosphere of 5% CO2 and 95% air. After a 72 hour incubation period, 25 μl of Cell Titer Glo 2.0 reagent was added to each well. The contents were mixed on an orbital shaker for 2 minutes and incubated at room temperature for 15 minutes to stabilize the luminescent signal. Luminescence was recorded by Envision 2104 Multilabel Reader (PerkinElmer, Santa Clara, Calif.). The number of viable cells in culture was determined based on quantitation of the ATP present in each culture well. […]

[7] = competition binding, read-out: Kd PIM3
[8] = competition binding, run in duplicate, read-out: Kd PIM1

Row | SMILES | Kd (PIM3 [1]; [7]) | Kd (PIM2 [2]) | Kd (PIM1 [3]; [8]) | IC50 (PIM2 [4]) | IC50 (PIM3 [5]) | other results
1 | O=C1NC(=O)c2c1c1c([nH]c3cccc(F)c31)c1[nH]c3cccc(F)c3c21 [Compound 128] | 24 nM | 260 nM | 0.28 µM |  |  | 
2 | O=C1NC(=O)c2c1c1c3cccc(F)c3[nH]c1c1[nH]c3c(F)cccc3c21 [Compound 131] | 130 nM | 2600 nM | 6.3 µM |  |  | 
3 | N#Cc1cccc2c1[nH]c1c3[nH]c4c(C#N)cccc4c3c3c(c21)C(=O)NC3=O [Compound 147] | > 3000 nM | > 3000 nM | > 3 µM |  |  | 
4 | O=C1NC(=O)c2c1c1c3cccc(Br)c3[nH]c1c1[nH]c3c(Br)cccc3c21 [Compound 139] | > 3000 nM | > 3000 nM | > 3 µM |  |  | 
5 | CN(C)C[C@@H]1CCn2cc(c3ccccc32)C2=C(C(=O)NC2=O)c2cn(c3ccccc23)CCO1 [Ruboxistaurin, ruboxistaurin, reference compound] |  |  |  | 7650 nM | 10 nM | 
6 | O=C1NC(=O)c2c1c1c3cc(Br)ccc3[nH]c1c1[nH]c3ccc(Br)cc3c21 [Compound 137] | > 10000 nM | > 10000 nM | > 10 µM |  |  | 
7 | O=C1NC(=O)c2c1c1c3ccccc3[nH]c1c1[nH]c3ccccc3c21 [Arcyriaflavin A, 12,13-dihydro-5H-indolo[2,3-a]pyrrolo[3,4-c]carbazole-5,7(6H)-dione, reference compound] | 2 nM and 1.9 nM | 19 nM | 0.021 µM | 21 nM | 0.3 nM | IC50 (PIM1 [6]): 2.2 nM
8 | N#Cc1ccc2c(c1)[nH]c1c3[nH]c4cc(C#N)ccc4c3c3c(c21)C(=O)NC3=O [Compound 146] | > 10000 nM | > 10000 nM | > 10 µM |  |  | 
9 | O=C1NC(=O)c2c1c1c3cccc(O)c3[nH]c1c1[nH]c3c(O)cccc3c21 [Compound 123] | 6.4 nM | 84 nM | 0.13 µM | 55 nM | 0.2 nM | IC50 (PIM1 [6]): 3.9 nM
10 | O=C1NC(=O)c2c1c1c3ccc(F)cc3[nH]c1c1[nH]c3cc(F)ccc3c21 [Compound 130] | 48 nM | 150 nM | 0.7 µM |  |  | 
11 | O=C1NC(=O)c2c1c1c3cc(F)ccc3[nH]c1c1[nH]c3ccc(F)cc3c21 [Compound 129, 3,9-difluoro-arcyriaflavin A] | 27 nM | 77 nM |  |  |  | Kd (PIM1 [3]; text value printed in μM, read-out: Kd for PIM1): 2.5 µM
12 | O=C1NC(=O)c2c1c1c3ccccc3[nH]c1c1c2c2ccccc2n1CCN1CCOCC1 [Compound 3, 12,13-dihydro-12-(2-(4-morpholine)ethyl)-5H-Indolo[2,3-a]pyrrolo[3,4-c]carbazole-5,7(6H)-dione] |  |  |  | 138 nM | 0.2 nM | IC50 (PIM1 [6]): 1.6 nM
13 | COC(=O)[C@@]1(O)C[C@H]2O[C@]1(C)n1c3ccccc3c3c4c(c5c6ccccc6n2c5c31)C(=O)NC4 [Compound K252a, K252a, reference compound] |  |  |  |  |  | Kd (PIM3 [1]; Kd PIM3, competition binding): ~10 nM
14 | O=C1NC(=O)c2c1c1c3ccc(O)cc3[nH]c1c1[nH]c3cc(O)ccc3c21 [Compound 122] | 3 nM | 9 nM | 0.011 µM | 5.4 nM | 0.03 nM | IC50 (SNU-16): 700 nM; IC50 (HEK-293): 2700 nM; IC50 (SW480): 2890 nM; IC50 (MIA PaCa-2): 4810 nM; IC50 (THLE-3): 4620 nM; IC50 (DU145): 2330 nM; IC50 (HepG2): 970 nM; IC50 (PIM1 [6]): 0.5 nM; IC50 PANC-1 (PANC-1): no inhibition
15 | O=C1NC(=O)c2c1c1c3ccc(Br)cc3[nH]c1c1[nH]c3cc(Br)ccc3c21 [Compound 138] | > 10000 nM | > 10000 nM | > 10 µM |  |  | 
